Data on 7 compounds can be found in US7652046B2, “Substituted thienopyrrole carboxylic acid amides, pyrrolothiazole carboxylic acid amides, and related analogs as inhibitors of casein kinase I” (Aventis Pharmaceuticals Inc., priority 2004, dated 2010).

As a reminder, the Ki is a measure of affinity in units of concentration, obtained from inhibition or displacement.

The subject of assay [1] is Mper1-luc Rat-1 fibroblasts (P2C4). In words: Cellular Circadian Assay (Mper1-luc reporter period lengthening). Type of assay: cell-based. As to conditions: effective concentration that induces a 1 hour lengthening of circadian period. The source says: The assay consists of Rat-1 fibroblasts stably expressing a Mper1-luc construct, thus enabling the determination of the rhythmic activation of the Mper1 promoter in living cells by repeatedly estimating luciferase activity by monitoring light-output over several days. The repeated measure format of the assay permits accurate and reproducible assessment of the concentration-dependent effects of CKIε inhibitors on circadian rhythm and provides the nexus for relating CKIε inhibition to circadian period alteration.
Cellular Circadian Assay Experimental Procedures
Stable transfection: Co-transfect Rat-1 fibroblast cultures at 30-50% confluence with vectors containing the Zeocin resistance selectable marker for stable transfection and an mPer-1 promoter-driven luciferase reporter gene. After 24-48 hours, split the cultures onto 96 well plates and maintain in growth media supplemented with 50-100 μg/mL Zeocin (Invitrogen #45-0430) for 10-14 days. Assess Zeocin-resistant stable transfectants for reporter expression by supplementing growth media with 100 μM luciferin (Promega #E1603) and assaying luciferase activity on a TopCount scintillation counter (Packard Model #C384V00). […] Select Mper1-luc Rat-1 fibroblasts clone P2C4 for compound testing. […] After synchronization, rinse cultures with 100 μL EMEM (Cellgro #10-010-CV) for 10 minutes at room temperature. […] Add compounds to be tested for circadian effects to CO2-independent media in 0.3% DMSO (final concentration). […] Estimate in vivo luciferase activity by measuring relative light output on a TopCount scintillation counter (Packard Model #C384V00). Transfer plates from incubator to reader using an ORCA robotic arm (Beckman Instruments) and SAMI-NT automated scheduling software (Version 3.3; SAGIAN/Beckman Instruments). Data Analysis: Use Microsoft Excel and XLfit (Version 2.0.9; IDBS) to import, manipulate and graph data. Perform period analysis either by determining the interval between relative light output minima over several days or by Fourier Transform. […] Analyze the data by fitting a hyperbolic curve to the data expressed as period change (y-axis) versus the concentration of test compound (x-axis) in XLfit and interpolate the EC[…]t+1h from this curve.

Assay [2] deals with T1, Casein Kinase Iε (Homo sapiens, UniProt P49674).
T1 construct: made in house
T1 sequence (P49674 whole entry): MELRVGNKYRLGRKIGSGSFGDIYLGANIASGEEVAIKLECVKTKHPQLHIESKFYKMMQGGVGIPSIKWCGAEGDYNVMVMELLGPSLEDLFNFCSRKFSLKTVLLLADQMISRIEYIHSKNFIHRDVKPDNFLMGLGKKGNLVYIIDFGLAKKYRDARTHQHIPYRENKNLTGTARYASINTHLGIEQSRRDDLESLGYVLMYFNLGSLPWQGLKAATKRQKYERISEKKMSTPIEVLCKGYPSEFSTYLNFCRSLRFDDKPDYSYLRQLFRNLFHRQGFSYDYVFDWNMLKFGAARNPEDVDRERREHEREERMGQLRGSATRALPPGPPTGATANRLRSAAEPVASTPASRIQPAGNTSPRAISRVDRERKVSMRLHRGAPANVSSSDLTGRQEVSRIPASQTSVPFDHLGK
In words: Casein Kinase Epsilon 33P-ATP Filter Plate Assay. Type of assay: biochemical. The text has this:
Casein Kinase Epsilon ^33P-ATP Filter Plate Assay for Screening CKIε Inhibitors
Purpose: This assay measures the ability of compounds to inhibit the phosphorylation of the substrate casein by the enzyme casein kinase 1ε using an in vitro ^33P-ATP filtration assay. […] Materials:
Equipment: • Beckman Biomek 2000 Liquid Handling Robot • Beckman Multimek 96 Automated 96 Channel Pipettor • Millipore Vacuum Manifold Basic Kit # MAVM0960R • Titertek Multidrop Liquid Dispenser • Packard TopCount NXT Liquid Scintillation Counter
Enzyme: • Casein Kinase 1ε final concentration 0.58 mg/ml obtained from fermentation and purification processes as are well known to one skilled in the art. The above are stored as 100 μL aliquots at minus 80° C.
Compounds: • Supply compounds for testing as frozen 10 mM compound stock dissolved in 100% DMSO. Assay Conditions:
Final total assay volume per well is equal to 50 μL that one prepares as follows: • 5 μL of diluted compound stock (10, 1, 0.1, 0.01 or 0.001 μM), • 5 μL of dephosphorylated casein final concentration 0.2 μg/μL, • 20 μL of CK1ε final concentration 3 ng/μL, and • 20 μL of γ-^33P-ATP final concentration 0.02 μCi/μL mixed with cold ATP (10 μM final). Methodology: • 1. Prepare 500 mL of fresh assay buffer: 50 mM Tris pH 7.5, 10 mM MgCl2, 2 mM DTT and 1 mM EGTA • 2. Obtain compounds to be evaluated as 10 μL of 10 mM stock dissolved in 100% DMSO. Use a Biomek 2000 liquid handling robot, make serial dilutions to yield 10, 1, 0.1, 0.01 and 0.001 μM final compound dilutions added as 5 μL additions to Falcon U bottom plates. […] A routine screening assay will consist of 32 compounds, which equals 4 assay plates. • 3. Assay plate maps are set up according to the following pattern CK1ePlateMap.xls
• 4. Add 5 μL of compound as indicated, then add 5 μL of dephosphorylated casein (dissolved in distilled H20)(0.2 μg/μL) and 20 μL CK1ε (3 ng/μL) to the appropriate wells. • 5. Finally add 20 μL γ-^33P-ATP (0.02 μCi/μL)/10 μM cold ATP (equals approximately 2×10^6 CPM per well). • 6. Vortes the Falcon U-Bottom assay plate containing the above 50 μL reaction volume and then incubate at room temperature for 2 hours. • 7. At the end of 2 hours, stop the reaction by the addition of 65 μL of ice cold 2 mM cold ATP (made up in assay buffer) to the assay plates using a Beckman Multimek. • 8. At the same time add 25 μL 100% ice cold TCA made up in distilled H20 to a matching number of Millipore MAPH filter plates. • 9. Using a handheld 8-channel pipettor, transfer 100 μL of the reaction mixture from the Falcon U-Bottom Plate to the Millipore MAPH filter plates presoaked with TCA. • 10. Mix the Millipore MAPH filter plates gently and allow to sit at room temperature for at least 30 minutes to precipitate the proteins. • 11. After 30 minutes, place the filter plates on a Millipore vacuum manifold and filter at no more than 8 mm Hg as the MAPH filters tend to “air lock” at higher vacuum settings. • 12. Wash the filter plates sequentially and filter with 2×150 μL 20% TCA, 2×150 μL 10% TCA and 2×150 μL 5% TCA (total of 6 washes per plate/900 μL per well). • 13. Allow the plates to dry overnight at room temperature. The next day add 40 μL Packard Microscint-20 Scintillation Fluid per well using a Titertek Multidrop dispenser; seal the plates and count for 2 minutes/well in a Packard Topcount NXT Scintillation Counter (to provide CPM values/well). Calculation: • 1. Import Counts Per Minute (CPM) data into a proprietary data calculation and archiving database (Activity Base by IDBS version 5.0). • 2. Column 1 for each plate reflects total phosphorylation activity of the enzyme in the absence of any inhibiting compound and thus represents 100%. Column 12 reflects any nonspecific phosphorylation/retained radioactivity activity in the absence of inhibiting compound and enzyme.

In the case of `NC(=O)c1[nH]c2ccsc2c1Sc1ccccc1N` [Id, 6-(2-Aminophenyl-sulfanyl)-4H-thieno[3,2-b]pyrrole-5-carboxylic acid amide], the “Cell Assay ECΔτ1h” value in assay [1] was above 30 µM. In addition, the inhibition constant (Ki) in assay [2] worked out at 110 nM.

`NC(=O)c1[nH]c2sccc2c1Sc1ccccc1` [IIb, 4-(phenylsulfanyl)-6H-thieno[2,3-b]pyrrole-5-carboxylic acid amide]: in assay [1], the “Cell Assay ECΔτ1h” value came out at 0.874 µM. This compound also showed an inhibition constant Ki in assay [2] of 811 nM.

For `NC(=O)c1[nH]c2scnc2c1Sc1ccccc1` [IIs, 6-Phenylsulfanyl-4H-pyrrolo[3,2-d]thiazole-5-carboxylic acid amide], the “Cell Assay ECΔτ1h” value in assay [1] was 1.155 µM. The inhibition constant (Ki) in assay [2] is 47 nM.

For the compound `COc1cccc(Sc2c(C(N)=O)[nH]c3scnc23)c1` [IIt, 6-(3-Methoxyphenyl-sulfanyl)-4H-pyrrolo[3,2-d]thiazole-5-carboxylic acid amide], the “Cell Assay ECΔτ1h” value in assay [1] was found to be 1.974 µM. Further, the Ki in assay [2] was determined as 22 nM.

For the compound `NC(=O)c1[nH]c2sccc2c1Sc1cccc(Br)c1` [IIg, 4-(3-Bromophenyl-sulfanyl)-6H-thieno[2,3-b]pyrrole-5-carboxylic acid amide], the “Cell Assay ECΔτ1h” value in assay [1] was determined as 2.492 µM. The compound further returned a Ki in assay [2] of 30.6 nM.

Consider `Cc1nc2c(Sc3cccc(F)c3)c(C(N)=O)[nH]c2s1` [IIn, 6-(3-Fluorophenyl-sulfanyl)-2-methyl-4H-pyrrolo[3,2-d]thiazole-5-carboxylic acid amide], for which the “Cell Assay ECΔτ1h” value in assay [1] turned out to be 0.998 µM. In assay [2], this compound gave a Ki of 15.9 nM.

On to `Cc1nc2c(Sc3cccc(Cl)c3)c(C(N)=O)[nH]c2s1` [IIo, 6-(3-Chlorophenyl-sulfanyl)-2-methyl-4H-pyrrolo[3,2-d]thiazole-5-carboxylic acid amide], for which the “Cell Assay ECΔτ1h” value in assay [1] worked out at 0.662 µM. The compound also registered a Ki in assay [2] of 9.6 nM.
